In patent publication US20230114865A1, “PHENYL PYRROLE AMINOGUANIDINE SALTS AND FORMULATIONS” (SYNACT PHARMA APS, priority 2021, published 2023):
Where two headings read alike, the source gives them in different places. Marks after values point to notes of the source that are not given here.

Experiments:
[1] = Solubility of additional AP1189 salts, HCl/KCl buffer 0.5 M pH 1.2; assay type: physicochemical
[2] = Stability of AP1189 in Ora-Sweet and Ora-Sweet SF, HPLC; assay type: physicochemical; conditions: 20 mg/ml suspension, pH 4.25, T=0
Protocol: Stability of AP1189 in Ora-Sweet and Ora-Sweet SF was tested.

[3] = Chemical stability of AP1189 suspension in Syrspend SF Alka, HPLC; assay type: physicochemical; conditions: room temp.; for Total Impurities (% Area) Initial / Total Impurities (% Area) T = 30 min / Total Impurities (% Area) T = 60 min / Total Impurities (% Area) T = 90 min: Syrspend SF Alka
Protocol: An experiment was conducted at lowest (15 mg) and highest (400 mg) dose strength to assess the dispersability and physical stability of the suspension. Chemical stability of the suspension was assessed by HPLC for 90 minutes at every 30 minutes interval.

[4] = Forced degradation studies on AP1189 at low pH; assay type: physicochemical; conditions: within 24 hours
MC1R = conditions: cited from earlier work
MC3R = conditions: cited from earlier work
primary macrophages = conditions: cited from earlier work
melanocytes = conditions: cited from earlier work
peritonitis = conditions: in vivo; cited from earlier work
[5] = system: experimental inflammatory arthritis; conditions: in vivo; cited from earlier work
[6] = buffer pH 1.2, fully dissolved, succinate 0.5 h
Protocol: As a result, the pH was adjusted to 1.2 with concentrated hydrochloric acid in both solutions. Both sample preparations were diluted 500 times with the sample diluent (acetonitrile:water 1:1 v/v).

Question: For `CC1(C)C2CCC1(CS(=O)(=O)O)C(=O)C2` (stereo not shown), which “Solubility HCI/KCI Buffer 0.5 M pH 1.2” value [1] is on record?
Answer: <15 mM

Question: For `NC(N)=N/N=C/C=C/c1cccn1-c1ccccc1[N+](=O)[O-]` [AP1189, (E)-N-[1-(2-nitrophenyl)-1-H-pyrrole-2-yl-allylideneamino]-guanidine], which “AP1189 degradation in Ora-Sweet SF, Initial” value [2] is on record?
Answer: <LOQ

Question: And the “stability in Syrspend SF Alka (in words)” value ([3]; 90 minutes)?
Answer: stable

Question: What about the “Total Impurities (% Area) Initial” value ([3]; dose strength 15 mg) of the same molecule?
Answer: 0.89* % Area

Question: What about the “Total Impurities (% Area) T = 30 min” value ([3]; dose strength 15 mg) of the same molecule?
Answer: 0.94* % Area

Question: And the “Total Impurities (% Area) T = 60 min” value ([3]; dose strength 15 mg)?
Answer: 0.88* % Area

Question: What about the “Total Impurities (% Area) T = 90 min” value ([3]; dose strength 15 mg) of the same molecule?
Answer: 0.87* % Area

Question: What about the “Total Impurities (% Area) Initial” value ([3]; dose strength 400 mg) of the same molecule?
Answer: 0.45 % Area

Question: What about the “Total Impurities (% Area) T = 30 min” value ([3]; dose strength 400 mg) of the same molecule?
Answer: 0.45 % Area

Question: And the “Total Impurities (% Area) T = 60 min” value ([3]; dose strength 400 mg)?
Answer: 0.45 % Area

Question: What about the “Total Impurities (% Area) T = 90 min” value ([3]; dose strength 400 mg) of the same molecule?
Answer: 0.45 % Area

Question: And the “degradation at low pH” value [4]?
Answer: at least 20%

Question: And the ERK1/2 phosphorylation (MC1R)?
Answer: cause ERK1/2 phosphorylation

Question: And the “canonical cAMP generation” value (MC1R)?
Answer: does not induce canonical cAMP generation

Question: What about the “characterisation at MC1R” value (MC1R) of the same molecule?
Answer: biased agonist

Question: What about the ERK1/2 phosphorylation (MC3R) of the same molecule?
Answer: cause ERK1/2 phosphorylation

Question: What about the “canonical cAMP generation” value (MC3R) of the same molecule?
Answer: does not induce canonical cAMP generation

Question: And the “characterisation at MC3R” value (MC3R)?
Answer: biased agonist

Question: And the “cytokine release in macrophages” value (primary macrophages)?
Answer: reduce cytokine release

Question: What about the “efferocytosis in primary macrophages” value (primary macrophages) of the same molecule?
Answer: proefferocytic effect

Question: And the melanogenesis in melanocytes (melanocytes)?
Answer: no melanogenesis was induced

Question: What about the actions in peritonitis (peritonitis) of the same molecule?
Answer: elicit anti-inflammatory actions

Question: And the “macroscopic and histological parameters of joint disruption” value [5]?
Answer: significantly reduce

Question: For “(E)-N-[1-(2-nitrophenyl)-1-H-pyrrole-2-yl-allylideneamino]-guanidinium acetate [AP1189 acetate]”, which “Determined concentration in pH 1.2 samples” value ([6]; acetate 5 h) is on record?
Answer: >223 mg/mL

Question: What about the “Determined concentration in pH 1.2 samples” value ([6]; time in cell: acetate 5 h) of the same molecule?
Answer: >617 mM (5 h)
